Laboratory results as given in US10988477B2 (Merck Patent GmbH, priority 2018, dated 2021).
Where two headings read alike, the source gives them in different places.

Assays:
GCN2 kinase = GCN2 kinase (Homo sapiens, UniProt Q9P2K8); assay: GCN2 enzyme inhibition assay (Transcreener ADP2 fluorescence polarization); assay type: biochemical; conditions: 280 μM ATP
Outline: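 Inhibition of 4 nM GCN2 was measured with compound up to 8 μM final, ATP 280 μM and (RS)7 peptide 200 μM over a 1 h, 25 °C reaction. ADP FP readout; IC50 and Ki(app) calculated from percent inhibition.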

[1] = target: intracellular GCN2 (phosphorylation of the GCN2 substrate eIF2α) (Homo sapiens, UniProt Q9P2K8); assay: GCN2 cellular inhibition assay (AlphaScreen SureFire P-eIF2α Ser51, borrelidin-treated U2OS cells); assay type: cell-based
Outline: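 Borrelidin at 10 μM is added to U2OS cells immediately after compound (4-fold dilution series, 40 μM top final) for 1 h at 37 °C. Phosphorylated eIF2α Ser51 in lysates is quantified by AlphaScreen and expressed as percent inhibition against borrelidin-stimulated controls.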

[2] = Enzyme activity for compounds of Formula IV, Ki(app), 25° C.
[3] = compounds of Formula IV, biomarker assay, phosphorylated eIF2α Ser51 in borrelidin-treated U2OS cells
[4] = compounds of Formula II, 4 nM GCN2 kinase
[5] = compounds of Formula II, biomarker assay, phosphorylated eIF2α Ser51 in borrelidin-treated U2OS cells
[6] = compounds of Formula III, 4 nM GCN2 kinase
[7] = compounds of Formula III, U2OS cells, 10 μM borrelidin, 1 h, read-out: GCN2 Biomarker (IC50)

Sequence of intracellular GCN2 (phosphorylation of the GCN2 substrate eIF2α) (Q9P2K8 whole entry): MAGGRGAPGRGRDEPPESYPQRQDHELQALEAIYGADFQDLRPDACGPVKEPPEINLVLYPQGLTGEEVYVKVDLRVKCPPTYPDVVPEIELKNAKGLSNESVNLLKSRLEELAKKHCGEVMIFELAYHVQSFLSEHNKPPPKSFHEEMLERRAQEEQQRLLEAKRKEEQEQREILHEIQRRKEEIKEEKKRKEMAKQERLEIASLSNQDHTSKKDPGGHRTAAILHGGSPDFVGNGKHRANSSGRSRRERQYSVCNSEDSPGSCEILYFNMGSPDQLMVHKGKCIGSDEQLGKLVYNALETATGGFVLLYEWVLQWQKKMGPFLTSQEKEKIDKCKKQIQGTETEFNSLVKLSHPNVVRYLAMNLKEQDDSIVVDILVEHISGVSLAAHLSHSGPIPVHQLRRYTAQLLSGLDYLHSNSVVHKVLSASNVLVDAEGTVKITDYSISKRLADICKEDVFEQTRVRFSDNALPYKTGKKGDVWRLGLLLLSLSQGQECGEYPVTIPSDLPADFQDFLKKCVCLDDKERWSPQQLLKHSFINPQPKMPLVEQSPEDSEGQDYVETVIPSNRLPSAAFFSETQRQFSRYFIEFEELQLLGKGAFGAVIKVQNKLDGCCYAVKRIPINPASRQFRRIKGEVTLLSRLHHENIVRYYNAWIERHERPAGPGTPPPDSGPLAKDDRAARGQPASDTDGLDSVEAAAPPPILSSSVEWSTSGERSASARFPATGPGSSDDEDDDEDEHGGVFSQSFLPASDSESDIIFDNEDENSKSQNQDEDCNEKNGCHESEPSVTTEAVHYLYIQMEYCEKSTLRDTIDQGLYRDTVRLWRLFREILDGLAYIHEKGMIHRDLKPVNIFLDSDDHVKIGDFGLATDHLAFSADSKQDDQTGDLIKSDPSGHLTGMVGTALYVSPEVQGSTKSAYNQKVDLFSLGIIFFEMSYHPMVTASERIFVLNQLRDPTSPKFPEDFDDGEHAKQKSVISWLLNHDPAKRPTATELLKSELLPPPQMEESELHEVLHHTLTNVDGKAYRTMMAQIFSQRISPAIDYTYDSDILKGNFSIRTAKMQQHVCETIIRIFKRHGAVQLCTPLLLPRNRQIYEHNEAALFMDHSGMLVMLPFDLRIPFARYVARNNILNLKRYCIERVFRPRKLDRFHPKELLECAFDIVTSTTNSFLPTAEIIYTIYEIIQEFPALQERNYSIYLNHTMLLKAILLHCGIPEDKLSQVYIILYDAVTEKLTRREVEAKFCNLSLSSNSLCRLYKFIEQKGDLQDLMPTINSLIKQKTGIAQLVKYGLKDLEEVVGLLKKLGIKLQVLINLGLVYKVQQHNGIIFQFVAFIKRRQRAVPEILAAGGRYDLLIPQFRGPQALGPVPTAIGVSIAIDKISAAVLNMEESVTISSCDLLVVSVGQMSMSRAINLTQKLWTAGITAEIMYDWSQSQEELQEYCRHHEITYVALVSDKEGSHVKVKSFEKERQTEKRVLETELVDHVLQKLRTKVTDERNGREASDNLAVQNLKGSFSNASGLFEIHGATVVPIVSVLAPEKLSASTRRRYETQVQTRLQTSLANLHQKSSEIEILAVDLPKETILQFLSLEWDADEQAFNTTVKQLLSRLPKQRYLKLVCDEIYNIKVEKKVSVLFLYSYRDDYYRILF
Sequence of GCN2 kinase (Q9P2K8 whole entry): as above

Structure (SMILES)	Ki (GCN2 kinase; [2]) [nM]	IC50 [1, 3] [nM]	Ki (GCN2 kinase; [4]) [nM]	IC50 [1, 5] [nM]	other results
FC(F)(F)c1cn2c(-c3nccc(N4CCC(c5cn[nH]c5)C4)n3)cnc2cn1 (centres unmarked) [IV-494, 3-(4-(3-(1H-Pyrazol-4-yl)pyrrolidin-1-yl)pyrimidin-2-yl)-6-(trifluoromethyl)imidazo[1,2-a]pyrazine]	10 to 100	500 to 5000			
CS(=O)(=O)NCC1CCN(c2cc(-c3cnc4ccc(C(F)F)nn34)ccn2)C1 (centres unmarked) [II-123, N-((1-(4-(6-(Difluoromethyl)imidazo[1,2-b]pyridazin-3-yl)pyridin-2-yl)pyrrolidin-3-yl)methyl)methanesulfonamide]			10 to 1000	500 to 5000	
CN1CCN(c2cc(-c3cnc4ccc(C(F)F)nn34)ncn2)CC12CN(S(C)(=O)=O)C2 [II-452, 8-(6-(6-(Difluoromethyl)imidazo[1,2-b]pyridazin-3-yl)pyrimidin-4-yl)-5-methyl-2-(methylsulfonyl)-2,5,8-triazaspiro[3.5]nonane]			10 to 1000	500 to 5000	
CC1CC(N=S(C)(C)=O)CN(c2cc(-c3cnc4ccc(C(F)F)nn34)c(F)cn2)C1 (single isomer, unassigned) [II-723, ((1-(4-(6-(Difluoromethyl)imidazo[1,2-b]pyridazin-3-yl)-5-fluoropyridin-2-yl)-5-methylpiperidin-3-yl)imino)dimethyl-λ^6-sulfanone]			10 to 1000	500 to 5000	
Cc1[nH]ncc1[C@@H]1CN(c2cc(-c3cnc4ccc(C(F)(F)F)nn34)ncn2)C[C@@H](C)O1 [II-766, (2R,6R)-2-methyl-6-(5-methyl-1H-pyrazol-4-yl)-4-(6-(6-(trifluoromethyl)imidazo[1,2-b]pyridazin-3-yl)pyrimidin-4-yl)morpholine]				> 5000	IC50 (GCN2 kinase; [4]): 10 to 1000 nM
CS(=O)(=O)NC[C@@H]1CN(c2ccnc(-c3cnc4cnc(C(F)F)cn34)n2)CCO1 [IV-23, (S)—N-((4-(2-(6-(Difluoromethyl)imidazo[1,2-a]pyrazin-3-yl)pyrimidin-4-yl)morpholin-2-yl)methyl)methanesulfonamide]	100 to 1000	> 5000			
O=C(O)[C@@H]1CCCN(c2cc(-c3cnc4ccc(C(F)(F)F)nn34)ncn2)C1 [II-506, (R)-1-(6-(6-(Trifluoromethyl)imidazo[1,2-b]pyridazin-3-yl)pyrimidin-4-yl)piperidine-3-carboxylic acid]			10 to 1000	> 5000	
FC(F)c1ccc2ncc(-c3cc(N4CCOCC4)ncn3)n2n1 [II-251, 4-(6-(6-(Difluoromethyl)imidazo[1,2-b]pyridazin-3-yl)pyrimidin-4-yl)morpholine]			10 to 1000	> 5000	
CC(=O)N1CCN(c2cncc(-c3cnc4ccc(C(F)F)nn34)c2)CC1 [II-171, 1-(4-(5-(6-(Difluoromethyl)imidazo[12-b]pyridazin-3-yl)pyridin-3-yl)piperazin-1-yl)ethanone]			10 to 1000	500 to 5000	
NS(=O)(=O)N1CCCN(c2ccnc(-c3cnc4cnc(C(F)F)cn34)n2)CC1 [IV-101, 4-(2-(6-(Difluoromethyl)imidazo[1,2-a]pyrazin-3-yl)pyrimidin-4-yl)-1,4-diazepane-1-sulfonamide]	100 to 1000	> 5000			
CC1CN(c2nccc(-c3cnc4cnc(Br)cn34)n2)C(C)C(c2cn[nH]c2)N1 (single isomer, unassigned) [IV-403, 6-Bromo-3-(2-(2,5-dimethyl-3-(1H-pyrazol-4-yl)piperazin-1-yl)pyrimidin-4-yl)imidazo[1,2-a]pyrazine]	< 10	< 500			
NC(=O)[C@H]1CCCN(c2cc(-c3cnc4ccc(Cl)nn34)ccn2)C1 [II-189, (S)-1-(4-(6-Chloroimidazo[1,2-b]pyridazin-3-yl)pyridin-2-yl)piperidine-3-carboxamide]			10 to 1000	500 to 5000	
CC1C(CNS(C)(=O)=O)N(C)C(C)CN1c1cc(-c2cnc3ccc(C(F)F)nn23)ncn1 (centres unmarked) [II-448, N-((4-(6-(6-(Difluoromethyl)imidazo[1,2-b]pyridazin-3-yl)pyrimidin-4-yl)-1,3,6-trimethylpiperazin-2-yl)methyl)methanesulfonamide]			< 10	< 500	
Cc1[nH]ncc1C1CCCN(c2ccnc(-c3cnc4cnc(C(F)(F)F)cn34)n2)C1 (single isomer, unassigned) [IV-471, 3-(4-(3-(5-Methyl-1H-pyrazol-4-yl)piperidin-1-yl)pyrimidin-2-yl)-6-(trifluoromethyl)imidazo[1,2-a]pyrazine]	10 to 100	> 5000			
Cc1[nH]ncc1C1CN(c2cc(-c3cnc4ccc(C(F)(F)F)nn34)ncn2)CC(C)O1 (centres unmarked) [II-762, 2-methyl-6-(5-methyl-1H-pyrazol-4-yl)-4-(6-(6-(trifluoromethyl)imidazo[1,2-b]pyridazin-3-yl)pyrimidin-4-yl)morpholine]				500 to 5000	IC50 (GCN2 kinase; [4]): 10 to 1000 nM
CS(=O)(=O)N1CCC2(CC1)CN(c1cc(-c3cnc4ccc(C(F)F)nn34)ncn1)CCO2 [II-287, 4-(6-(6-(Difluoromethyl)imidazo[1,2-b]pyridazin-3-yl)pyrimidin-4-yl)-9-(methylsulfonyl)-1-oxa-4,9-diazaspiro[5.5]undecane]			10 to 1000	> 5000	
CC(=O)N1CCN(c2cc(-c3cnc4ccc(C(F)F)nn34)ncn2)CC1 [II-186, 1-(4-(6-(6-(Difluoromethyl)imidazo[1,2-b]pyridazin-3-yl)pyrimidin-4-yl)piperazin-1-yl)ethan-1-one]			10 to 1000	500 to 5000	
C[C@H]1CCCCN1c1ccnc(-c2cnc3cnc(C(F)F)cn23)n1 [IV-85, (S)-6-(Difluoromethyl)-3-(4-(2-methylpiperidin-1-yl)pyrimidin-2-yl)imidazo[1,2-a]pyrazine]	100 to 1000	> 5000			
CP(C)(=O)C1CC(c2cn[nH]c2)CN(c2ccnc(-c3cnc4cnc(C(F)(F)F)cn34)n2)C1 (single isomer, unassigned) [IV-592, (5-(1H-Pyrazol-4-yl)-1-(2-(6-(trifluoromethyl)imidazo[1,2-a]pyrazin-3-yl)pyrimidin-4-yl)piperidin-3-yl)dimethylphosphine oxide]	< 10	> 5000			
C[C@H]1CN(c2cc(-c3cnn4cc(F)c(C(F)F)nc34)ncn2)C[C@@H](CNS(C)(=O)=O)C1(F)F [III-11, N-[[(3S,5S)-1-[6-[5-(Difluoromethyl)-6-fluoro-pyrazolo[1,5-a]pyrimidin-3-yl]pyrimidin-4-yl]-4,4-difluoro-5-methyl-3-piperidyl]methyl]methanesulfonamide]					Ki (GCN2 kinase; [6]): < 10 nM; IC50 [1, 7]: < 500 nM
CN1CCN(c2cc(-c3cnc4ccc(C(F)F)nn34)ncn2)CC12CN(S(N)(=O)=O)C2 [II-535, 8-(6-(6-(Difluoromethyl)imidazo[1,2-b]pyridazin-3-yl)pyrimidin-4-yl)-5-methyl-2,5,8-triazaspiro[3.5]nonane-2-sulfonamide]			10 to 1000	500 to 5000	
CC1C(CNS(C)(=O)=O)C(F)(F)C(C)CN1c1cc(-c2cnc3ccc(C(F)F)nn23)ncn1 (centres unmarked) [II-476, N-((1-(6-(6-(Difluoromethyl)imidazo[1,2-b]pyridazin-3-yl)pyrimidin-4-yl)-4,4-difluoro-2,5-dimethylpiperidin-3-yl)methyl)methanesulfonamide]			10 to 1000	500 to 5000	
OCCC1CCN(c2ccnc(-c3cnc4cnc(C(F)(F)F)cn34)n2)C1 (centres unmarked) [IV-435, 2-(1-(2-(6-(Trifluoromethyl)imidazo[1,2-a]pyrazin-3-yl)pyrimidin-4-yl)pyrrolidin-3-yl)ethan-1-ol]	100 to 1000	500 to 5000			
CC1CN(c2ccnc(-c3cnc4cnc(C(F)(F)F)cn34)n2)C(C)C(c2c[nH]cn2)O1 (centres unmarked) [IV-525, 2-(1H-Imidazol-4-yl)-3,6-dimethyl-4-(2-(6-(trifluoromethyl)imidazo[1,2-a]pyrazin-3-yl)pyrimidin-4-yl)morpholine]	< 10	500 to 5000			
CC1C(c2cn[nH]c2)N(CCO)C(C)CN1c1ccnc(-c2cnc3cnc(C(F)(F)F)cn23)n1 (single isomer, unassigned) [IV-636, 2-(3,6-Dimethyl-2-(1H-pyrazol-4-yl)-4-(2-(6-(trifluoromethyl)imidazo[1,2-a]pyrazin-3-yl)pyrimidin-4-yl)piperazin-1-yl)ethan-1-ol]	< 10	500 to 5000			
CNc1cc(N2CCCC(CNS(C)(=O)=O)C2)cc(-c2cnc3ccc(C(F)F)nn23)n1 (centres unmarked) [II-60, N-((1-(2-(6-(Difluoromethyl)imidazo[1,2-b]pyridazin-3-yl)-6-(methylamino)pyridin-4-yl)piperidin-3-yl)methyl)methanesulfonamide]			< 10	< 500	
CS(=O)(=O)NC[C@@H]1CN(c2cc(-c3cnn4cc(F)c(C(F)F)nc34)ncn2)CCO1 [III-10, N-[[(2S)-4-[6-[5-(Difluoromethyl)-6-fluoro-pyrazolo[1,5-a]pyrimidin-3-yl]pyrimidin-4-yl]morpholin-2-yl]methyl]methanesulfonamide]					Ki (GCN2 kinase; [6]): < 10 nM; IC50 [1, 7]: < 500 nM
CS(C)(=O)=NC[C@@H]1CN(c2cc(-c3cnc4ccc(C(F)F)nn34)ccn2)CCO1 [II-102, [(2S)-4-[4-[6-(Difluoromethyl)imidazo[1,2-b]pyridazin-3-yl]-2-pyridyl]morpholin-2-yl]methylimino-dimethyl-oxo-sulfane]			10 to 1000	> 5000	
